Laboratory results reported in US11446282B2, “Methods of treating mixed dyslipidemia and hypertriglycertdemia” (Kowa Company, Ltd., priority 2017, dated 2022).

System: dyslipidemic patients with or without statin
Assay: Example 4 pooled analysis of phase 2 and 3 studies: safety parameters
Format: in vivo, human
Settings: With Statin
Protocol: The present study analyzed data combined from 6 randomized double-blind placebo-controlled studies that were conducted in Japan and continued for 12 weeks unless otherwise noted: a phase 2 study in 224 patients with a history of documented dyslipidemia and plasma TG of 200 mg/dL (2.26 mmol/L) or higher, randomized to placebo, pemafibrate 0.05, 0.1, 0.2, 0.4 mg/day, or fenofibrate 100 mg/day; a phase 3 study in 526 patients with dyslipidemia, high TG levels, and low HDL-C levels, randomized to placebo, pemafibrate 0.1, 0.2, or 0.4 mg/day, or fenofibrate 100 or 200 mg/day; a study in 188 patients with dyslipidemia, randomized to pitavastatin in combination with pemafibrate 0.1, 0.2, or 0.4 mg/day; a 24-week study in 423 patients with dyslipidemia, randomized to pemafibrate 0.2 mg/day (fixed dose) or 0.2 [0.4] mg/day (conditional up-titration) with any statin; a 24-week phase 3 study in 166 patients with type 2 diabetes and hypertriglyceridemia, randomized to placebo or pemafibrate 0.2 or 0.4 mg/day; and a study in 27 patients with hypertriglyceridemia and insulin resistance, randomized to pemafibrate 0.4 mg/day or placebo. All studies were approved by the Institutional Review Board for each study institution and were conducted in accordance with the Declaration of Helsinki and under the guidelines of Good Clinical Practice.
In this study, we evaluated the efficacy and safety of pemafibrate at doses of 0.1 mg/day, 0.2 mg/day, and 0.4 mg/day, with and without statin. The primary efficacy endpoint was percent change in TG from baseline to 12 weeks. The secondary efficacy endpoints were also assessed from baseline to 12 weeks: percent change in HDL-C, LDL-C, non-HDL-C, TC, RemL-C, Apo AI, Apo AII, Apo B, Apo B48, Apo CII, Apo CIII, Apo CIII/Apo CII, and Apo E; percent change in HPLC findings for CM-C, VLDL-C, cholesterol content in 4 subclasses of LDL (large, medium, small, and very small LDLs), and cholesterol content for 5 subclasses of HDL (very large, large, medium, small, and very small HDLs); and changes in fibrinogen and FGF21. The primary safety endpoints were the incidence of adverse events and adverse drug reactions. Secondary safety endpoints were percentage of values above the upper limit of normal range for AST, ALT, sCr and CK, and change in sCr eGFR, CK, AST, ALT, gamma-glutamyl transferase (γ-GT), alkaline phosphatase (ALP), and total bilirubin.
Patients with renal dysfunction were defined as those with baseline eGFR<60 mL/min/1.73 m^2. Analysis was stratified by the presence or absence of renal dysfunction in the concomitant statin group, and efficacy and safety of pemafibrate were evaluated. In efficacy and safety evaluations excluding AEs, ADRs, and cutoff values for AST, ALT, sCr, and CK, findings were combined for pemafibrate subgroups receiving doses of 0.1 mg/day, 0.2 mg/day, and 0.4 mg/day.
For each lipid parameter, gel filtration HPLC was performed at Skylight Biotech, Inc. Other measurements were performed at LSI Medience Corporation. The FAS was used for analyzing efficacy parameters of effects on lipids, fibrinogen, and FGF21. The safety analysis set was used for safety parameters and included all patients who received at least one dose of the study drug. For lipid parameters, fibrinogen, and FGF21, LS means (95% confidence interval) were calculated at Week 12 (LOCF) using analysis of covariance (ANCOVA) with baseline values as the co-variable within each category. For safety parameters, LS means (95% confidence interval) were calculated at Week 12 using ANCOVA with baseline values as the co-variable within each category. SAS version 9.2 was used for analyses.

CC[C@@H](Oc1cccc(CN(CCCOc2ccc(OC)cc2)c2nc3ccccc3o2)c1)C(=O)O [Pemafibrate, (2R)-2-[3-({1,3-benzoxazol-2-yl[3-(4-methoxyphenoxy)propyl]amino}methyl)phenoxy]butanoic acid]
ADE Leading to withdrawal, number of patients (0.1 mg/day, n=45): 1 | ADE Leading to withdrawal, percentage of patients (0.1 mg/day, n=45): (2.2) percentage | ADE Serious, number of patients (0.1 mg/day, n=45): 0 | ADE Total, number of patients (0.1 mg/day, n=45): 3 | ADE Total, percentage of patients (0.1 mg/day, n=45): (6.7) percentage | AE Leading to withdrawal, number of patients (0.1 mg/day, n=45): 2 | AE Leading to withdrawal, percentage of patients (0.1 mg/day, n=45): (4.4) percentage | AE Serious, number of patients (0.1 mg/day, n=45): 2 | AE Serious, percentage of patients (0.1 mg/day, n=45): (4.4) percentage | AE Total, number of patients (0.1 mg/day, n=45): 29 | AE Total, percentage of patients (0.1 mg/day, n=45): (64.4) percentage | ALT ≥ ULN × 3, number of patients (0.1 mg/day, n=45): 1 | ALT ≥ ULN × 3, percentage of patients (0.1 mg/day, n=45): (2.2) percentage | AST ≥ ULN × 3, number of patients (0.1 mg/day, n=45): 0 | CK ≥ 2.5 and < ULN × 5, number of patients (0.1 mg/day, n=45): 2 | CK ≥ 2.5 and < ULN × 5, percentage of patients (0.1 mg/day, n=45): (4.4) percentage | CK ≥ 5 and < ULN × 10, number of patients (0.1 mg/day, n=45): 0 | CK ≥ ULN × 10, number of patients (0.1 mg/day, n=45): 0 | sCr ≥ ULN, number of patients (0.1 mg/day, n=45): 8 | sCr ≥ ULN, percentage of patients (0.1 mg/day, n=45): (17.8) percentage | ADE Leading to withdrawal, number of patients (0.2 mg/day, n=382): 11 | ADE Leading to withdrawal, percentage of patients (0.2 mg/day, n=382): (2.9) percentage | ADE Serious, number of patients (0.2 mg/day, n=382): 2 | ADE Serious, percentage of patients (0.2 mg/day, n=382): (0.5) percentage | ADE Total, number of patients (0.2 mg/day, n=382): 36 | ADE Total, percentage of patients (0.2 mg/day, n=382): (9.4) percentage | AE Leading to withdrawal, number of patients (0.2 mg/day, n=382): 12 | AE Leading to withdrawal, percentage of patients (0.2 mg/day, n=382): (3.1) percentage | AE Serious, number of patients (0.2 mg/day, n=382): 6 | AE Serious, percentage of patients (0.2 mg/day, n=382): (1.6) percentage | AE Total, number of patients (0.2 mg/day, n=382): 164 | AE Total, percentage of patients (0.2 mg/day, n=382): (42.9) percentage | ALT ≥ ULN × 3, number of patients (0.2 mg/day, n=382): 0 | AST ≥ ULN × 3, number of patients (0.2 mg/day, n=382): 1 | AST ≥ ULN × 3, percentage of patients (0.2 mg/day, n=382): (0.3) percentage | CK ≥ 2.5 and < ULN × 5, number of patients (0.2 mg/day, n=382): 7 | CK ≥ 2.5 and < ULN × 5, percentage of patients (0.2 mg/day, n=382): (1.6) percentage | CK ≥ 5 and < ULN × 10, number of patients (0.2 mg/day, n=382): 3 | CK ≥ 5 and < ULN × 10, percentage of patients (0.2 mg/day, n=382): (0.6) percentage | CK ≥ ULN × 10, number of patients (0.2 mg/day, n=382): 1 | CK ≥ ULN × 10, percentage of patients (0.2 mg/day, n=382): (0.3) percentage | sCr ≥ ULN, number of patients (0.2 mg/day, n=382): 61 | sCr ≥ ULN, percentage of patients (0.2 mg/day, n=382): (16.0) percentage | ADE Leading to withdrawal, number of patients (0.4 mg/day, n=72): 0 | ADE Serious, number of patients (0.4 mg/day, n=72): 0 | ADE Total, number of patients (0.4 mg/day, n=72): 2 | ADE Total, percentage of patients (0.4 mg/day, n=72): (2.8) percentage | AE Leading to withdrawal, number of patients (0.4 mg/day, n=72): 0 | AE Serious, number of patients (0.4 mg/day, n=72): 0 | AE Total, number of patients (0.4 mg/day, n=72): 34 | AE Total, percentage of patients (0.4 mg/day, n=72): (47.2) percentage | ALT ≥ ULN × 3, number of patients (0.4 mg/day, n=72): 1 | ALT ≥ ULN × 3, percentage of patients (0.4 mg/day, n=72): (1.4) percentage | AST ≥ ULN × 3, number of patients (0.4 mg/day, n=72): 1 | AST ≥ ULN × 3, percentage of patients (0.4 mg/day, n=72): (1.4) percentage | CK ≥ 2.5 and < ULN × 5, number of patients (0.4 mg/day, n=72): 2 | CK ≥ 2.5 and < ULN × 5, percentage of patients (0.4 mg/day, n=72): (2.8) percentage | CK ≥ 5 and < ULN × 10, number of patients (0.4 mg/day, n=72): 0 | CK ≥ ULN × 10, number of patients (0.4 mg/day, n=72): 0 | sCr ≥ ULN, number of patients (0.4 mg/day, n=72): 11 | sCr ≥ ULN, percentage of patients (0.4 mg/day, n=72): (15.3) percentage
